In patent publication US7217548B2, “N-acetylglucosaminlytransferase and polynucleotide encoding the same” (National Institute of Advanced Industrial Science and …, priority 2000, dated 2007):
Entries after “also recorded” stand apart in the source; their conditions may differ. Where two headings read alike, the source gives them in different places. Peptide text beside a SMILES is read from it. * marks the point of attachment. αMan = OC[C@H]1O[C@H](*)[C@@H](O)[C@@H](O)[C@@H]1O

Assays:
[1] = target: T1, OMGnT derived from a newborn rat brain (Rattus norvegicus, UniProt Q5XIN7); assay: Divalent cation requirement for OMGnT activity; format: biochemical; conditions: for effect on OMGnT activity relative to Mn2+: 10 mM for each divalent cation; for Relative activity of OMGnT (%): each additive 10 mM, activity with 10 mM MnCl2 taken as 100%
T1 construct: from tissue; host or cells: newborn rat brain
Protocol: *OMGnT activity was determined by adding each of the metal ions (10 mM) to a OMGnT sample. The figures in the Table are expressed in percent, taking the activity when 10 mM MnCl2 is added as 100%.

[2] = target: T2, His-Xpress-sOMGnT(L) (Homo sapiens, UniProt Q8WZA1, M623V); assay: Substrate specificity and kinetic parameters of solubilized human OMGnT enzyme (L); format: biochemical; conditions: for OMGnT relative activity (%) His-Xpress-sOMGnT(L): as sugar receptor, activity with Man-peptide regarded as 100%
T2 construct: 595 amino acids from 66: Ser thereof (66: Ser to 660: Thr), respectively; Ig kappa chain secretory signal (N); made in house; host or cells: HEK293T (transient, secreted into serum-free medium)
Protocol: (§1) […] […] The reaction mixture was then filtered with a filter Ultrafree-MC (Millipore) having a pore size of 0.22 μm to remove solids, and analyzed by Wakopak 5C18-200 column (4.6×250 mm, Wako Pure Chemical Industries, Ltd.). The separation was carried out using concentration gradient with Solution A and Solution B at a flow rate of 1.0 ml/min. […] Peptide detection was carried out at 214 nm, and the radioactivity of each fraction was assayed using a liquid scintillation counter.
(§2) The activity of GnT-1 was assayed with a method by Yoshida et al. [Yoshida, S., Suzuki, M., Yamano, S., Takeuchi, M., Ikenaga, H., Kioka, N., Sakai, H., and Komano, T., Glycobiology, (1999), 9, 53–58] as described below. A 20 μl reaction solution was prepared by adding an enzyme source thereto so as to have a final concentration of 100 mM MES (pH 6.0), 20 mM MnCl2, 5 μM Manα1–6(Manα1–3)Manα1–6(Manα1–3)Manβ1–4GlcNAcβ1–4GlcNAc-PA(M5GN2-PA; Takara Shuzo, PA-Sugar Chain 017), 1 mM UDP-GlcNAc, 100 mM GlcNAc, 5 mM AMP, 1% Triton X-100, and 0.2% BSA. The reaction solution was incubated at 37° C. for 1 hour, and the reaction was terminated in boiling water. Thereafter, the reaction solution was analyzed by a reverse phase HPLC (Cosmosil 5C18-AR column) available from Nacalai Tesque.
(§3) When Manα1–6(Manα1–3)Manβ1–4GlcNAcβ1–4GlcNAc-PA (M3GN2-PA; Takara Shuzo, PA-Sugar Chain 016) was used as a sugar receptor, the same method was employed for analysis.

[3] = target: T3, His-Xpress-sOMGnT(S) (Homo sapiens, UniProt Q8WZA1, M623V); assay: Substrate specificity and kinetic parameters of solubilized human OMGnT enzyme (S); format: biochemical; conditions: for OMGnT relative activity (%) His-Xpress-sOMGnT(S): as sugar receptor, activity with Man-peptide regarded as 100%
T3 construct: Ig kappa chain secretory signal (N); made in house; host or cells: HEK293T (transient, secreted into serum-free medium)
T3 sequence (Q8WZA1 247-660 M623V): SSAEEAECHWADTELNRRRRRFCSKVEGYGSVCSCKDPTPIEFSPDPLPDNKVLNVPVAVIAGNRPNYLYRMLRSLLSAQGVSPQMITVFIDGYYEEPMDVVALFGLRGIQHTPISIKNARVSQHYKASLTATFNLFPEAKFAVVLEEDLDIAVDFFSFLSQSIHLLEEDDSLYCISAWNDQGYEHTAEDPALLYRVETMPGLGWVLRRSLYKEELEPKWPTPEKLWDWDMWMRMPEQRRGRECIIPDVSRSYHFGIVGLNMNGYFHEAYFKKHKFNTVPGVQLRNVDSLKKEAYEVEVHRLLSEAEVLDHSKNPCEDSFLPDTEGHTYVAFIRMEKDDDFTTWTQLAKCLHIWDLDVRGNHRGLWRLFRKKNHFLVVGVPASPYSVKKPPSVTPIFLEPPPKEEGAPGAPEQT
Protocol: as §1, §2, §3

[4] = system: OMGnT; assay: Substrate specificity of OMGnT expressed in animal cells (summary of properties); format: biochemical, human; conditions: reactivity toward mannosylnanopeptide regarded as 100%
Description: The biochemical properties of the OMGnT: an enzyme protein massively expressed in animal cells as described above are as follows.

[5] = system: OMGnT; assay: OMGnT activity in serum-free medium of HEK293T cells expressing solubilized enzymes; format: biochemical, human; conditions: serum-free medium of HEK293T transfectants
Protocol: (§4) The enzyme solution was added to 140 mM MES [2-(N-morpholino) ethanesulfonic acid] buffer (pH 7.0) containing 0.4 mM Man-peptide, 0.2 mM UDP-[^3H]GlcNAc (up to 228,000 dpm/nmol), 10 mM MnCl2, 5 mM AMP, 200 mM GlcNAc, 2%(w/v) Triton X-100, 10% glycerol, 2 μg/ml antipain, 2 μg/ml chymostatin, 3 μg/ml pepstatin A, 2 μg/ml leupeptin, 1 mM benzamidine-HCl, and 1 mM PMSF (phenylmethylsulfonyl fluoride) to prepare 50 μl of reaction solution. After the reaction at 37° C. for 3 hours, the reaction was terminated by 3 minutes of boiling. The reaction mixture was then filtered with a filter Ultrafree-MC (Millipore) having a pore size of 0.22 μm to remove solids, and analyzed by Wakopak 5C18-200 column (4.6×250 mm, Wako Pure Chemical Industries, Ltd.). The separation was carried out using concentration gradient with Solution A and Solution B at a flow rate of 1.0 ml/min. […] Peptide detection was carried out at 214 nm, and the radioactivity of each fraction was assayed using a liquid scintillation counter.
Each secretory expression plasmid was transiently expressed in a HEK293T cell derived from human embryonic kidney. Usually, HEK293T cells were cultured in D-MEM (Gibco, #11995-065) containing 10% Fetal Calf Serum (Hyclone), 10 mM MEM Non-Essential Amino Acids solution (Gibco), 2 mM Glutamine (Gibco), and 100 units/ml Penicillin/100 μg/ml Streptomycin (Gibco). […]

[6] = target: T4, GnT-I (Homo sapiens, UniProt P26572); assay: GnT-I activity assay of solubilized enzymes; format: biochemical; conditions: method of Reference Example 2
T4 construct: Ig kappa chain secretory signal (N); made in house; host or cells: HEK293T (transient, secreted into serum-free medium)
T4 sequence (P26572 39-445 limits assumed): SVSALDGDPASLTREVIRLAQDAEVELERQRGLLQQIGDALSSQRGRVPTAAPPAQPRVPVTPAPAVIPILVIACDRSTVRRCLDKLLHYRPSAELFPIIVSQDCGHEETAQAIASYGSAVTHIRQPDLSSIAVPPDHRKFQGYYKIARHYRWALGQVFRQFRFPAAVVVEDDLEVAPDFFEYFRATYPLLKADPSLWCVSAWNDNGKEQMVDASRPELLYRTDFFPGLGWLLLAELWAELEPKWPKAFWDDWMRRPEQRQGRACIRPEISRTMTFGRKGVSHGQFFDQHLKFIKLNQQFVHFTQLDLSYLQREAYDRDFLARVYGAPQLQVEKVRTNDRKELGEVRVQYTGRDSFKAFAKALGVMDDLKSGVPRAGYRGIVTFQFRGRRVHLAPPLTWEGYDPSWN
Protocol: as §2, §3

[7] = target: T5, OMGnT (Homo sapiens, UniProt Q8WZA1, M623V); assay: OMGnT activity of microsomal fractions of HEK293T cells transfected with full-length human OMGnT plasmid; format: biochemical
T5 construct: a cDNA of approximately 2.0 kb encoding the full length of human OMGnT is inserted; expressed in transfected cells; host or cells: HEK293T
Protocol: as §4
The mixture was centrifuged for 10 minutes at 900×g, and then the obtained supernatant was centrifuged for 1 hour at 100,000×g, thereby obtaining a microsomal fraction as a precipitate. In the case of preparing solubilized enzyme, the precipitate was suspended in 140 mM MES buffer (pH 7.0) (referred to as solubilization buffer) containing 5 mM AMP, 200 mM GlcNAc, 2%(w/v) Triton X-100, 10% glycerol, 2 μg/ml antipain, 2 μg/ml chymostatin, 3 μg/ml pepstatin A, 2 μg/ml leupeptin, 1 mM benzamidine-HCl, and 1 mM PMSF(phenylmethylsulfonyl fluoride) and sonicated. Thereafter, the resultant was centrifuged for 1 hour at 100,000×g and the obtained supernatant was used.
The expression plasmid was transiently expressed in an HEK293T cell in the same manner as described in Example 3. 15 μg of plasmid was transfected to 50–70% confluent cells in a 10 cm petri dish. After overnight cultivation, the medium was changed. After a further 48-hour cultivation, cells were collected.
A microsomal fraction was prepared from cells by the method described in Example 2, and OMGnT activity of a soluble fraction and an insoluble fraction were assayed by the method described in Example 1.

T1 sequence (Q5XIN7 whole entry): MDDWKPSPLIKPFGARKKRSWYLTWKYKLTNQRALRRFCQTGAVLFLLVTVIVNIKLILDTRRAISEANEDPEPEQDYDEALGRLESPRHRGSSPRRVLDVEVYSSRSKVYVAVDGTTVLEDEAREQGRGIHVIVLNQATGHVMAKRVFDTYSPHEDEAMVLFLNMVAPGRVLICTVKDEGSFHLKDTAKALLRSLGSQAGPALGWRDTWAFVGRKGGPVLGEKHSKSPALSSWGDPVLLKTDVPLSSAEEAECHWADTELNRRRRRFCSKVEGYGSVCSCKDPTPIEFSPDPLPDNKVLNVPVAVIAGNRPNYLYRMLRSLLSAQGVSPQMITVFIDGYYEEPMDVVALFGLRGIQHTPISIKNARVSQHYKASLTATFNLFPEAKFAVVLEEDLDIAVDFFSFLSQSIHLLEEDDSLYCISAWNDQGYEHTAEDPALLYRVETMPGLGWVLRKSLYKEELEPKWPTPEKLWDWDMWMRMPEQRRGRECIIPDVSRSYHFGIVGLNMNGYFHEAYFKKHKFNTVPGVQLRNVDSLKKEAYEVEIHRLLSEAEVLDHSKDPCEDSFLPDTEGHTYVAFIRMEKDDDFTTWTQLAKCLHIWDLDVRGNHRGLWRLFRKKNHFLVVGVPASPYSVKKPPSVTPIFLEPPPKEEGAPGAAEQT
T2 sequence (Q8WZA1 66-660 M623V): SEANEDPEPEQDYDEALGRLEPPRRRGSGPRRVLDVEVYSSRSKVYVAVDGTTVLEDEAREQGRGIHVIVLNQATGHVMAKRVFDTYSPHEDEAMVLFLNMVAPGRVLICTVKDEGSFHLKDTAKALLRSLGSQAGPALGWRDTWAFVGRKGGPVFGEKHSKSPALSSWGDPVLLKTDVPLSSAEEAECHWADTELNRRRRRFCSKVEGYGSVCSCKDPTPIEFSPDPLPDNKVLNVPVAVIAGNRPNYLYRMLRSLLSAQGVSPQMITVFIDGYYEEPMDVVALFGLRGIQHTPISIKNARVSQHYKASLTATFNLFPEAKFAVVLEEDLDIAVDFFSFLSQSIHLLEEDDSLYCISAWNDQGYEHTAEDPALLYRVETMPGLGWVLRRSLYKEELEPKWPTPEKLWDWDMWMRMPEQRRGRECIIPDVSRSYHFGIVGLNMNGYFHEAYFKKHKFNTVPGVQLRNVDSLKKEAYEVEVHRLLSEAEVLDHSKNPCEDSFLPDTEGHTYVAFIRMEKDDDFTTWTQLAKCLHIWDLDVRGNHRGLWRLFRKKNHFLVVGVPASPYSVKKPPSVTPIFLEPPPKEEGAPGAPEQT
T5 sequence (Q8WZA1 whole entry M623V): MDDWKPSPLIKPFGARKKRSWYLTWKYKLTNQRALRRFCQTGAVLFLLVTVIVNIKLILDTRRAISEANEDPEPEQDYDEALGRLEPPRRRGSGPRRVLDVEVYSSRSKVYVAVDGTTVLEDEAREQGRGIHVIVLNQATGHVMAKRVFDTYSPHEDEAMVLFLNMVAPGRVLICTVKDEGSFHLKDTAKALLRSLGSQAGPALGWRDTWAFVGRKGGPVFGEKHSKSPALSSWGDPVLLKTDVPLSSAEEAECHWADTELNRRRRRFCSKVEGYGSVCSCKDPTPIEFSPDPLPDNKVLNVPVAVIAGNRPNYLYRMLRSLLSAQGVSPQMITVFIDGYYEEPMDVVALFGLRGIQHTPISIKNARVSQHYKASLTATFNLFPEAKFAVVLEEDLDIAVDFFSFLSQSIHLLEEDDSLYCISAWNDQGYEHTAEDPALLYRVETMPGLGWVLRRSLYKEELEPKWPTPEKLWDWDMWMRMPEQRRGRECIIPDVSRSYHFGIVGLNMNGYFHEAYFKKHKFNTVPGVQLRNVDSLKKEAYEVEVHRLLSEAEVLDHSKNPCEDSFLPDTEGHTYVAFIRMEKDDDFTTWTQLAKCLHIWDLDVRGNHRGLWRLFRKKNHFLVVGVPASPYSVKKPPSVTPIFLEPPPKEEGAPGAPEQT

Molecule: [Ca+2].[Cl-].[Cl-] [CaCl2]
- effect on OMGnT activity (in words) [1]: weak effect
- effect on OMGnT activity relative to Mn2+ [1]: approximately 15%
- Relative activity of OMGnT (%) [1]: 15%

Molecule: CC(=O)N[C@@H](C)C(=O)N[C@@H](C)C(=O)N1CCC[C@H]1C(=O)N[C@H](C(=O)N1CCC[C@H]1C(=O)N[C@H](C(=O)N[C@@H](C)C(=O)N[C@@H](C)C(=O)N1CCC[C@H]1C(N)=O)C(C)C)[C@@H](C)O[C@H]1O[C@H](CO)[C@@H](O)[C@H](O)[C@@H]1O [Man-peptide, Ac-Ala-Ala-Pro-Thr(Man)-Pro-Val-Ala-Ala-Pro-NH2] (Ac-AAPT(αMan)PVAAP-NH2)
- OMGnT relative activity (%) His-Xpress-sOMGnT(L) [2]: 100%
- OMGnT relative activity (%) His-Xpress-sOMGnT(S) [3]: 100%

Molecule: [Cl-].[Cl-].[Mg+2] [MgCl2]
- effect on OMGnT activity relative to Mn2+ [1]: approximately 40%
- Relative activity of OMGnT (%) [1]: 39%

Molecule: [Cl][Mn][Cl] [MnCl2]
- concentration range at which the effect on OMGnT activity is the greatest [1]: 1 to 10 mM
- Relative activity of OMGnT (%) [1]: 100%
- effect on OMGnT activity (in words) ([1]; listed as Mn^2+): greatest effect; also recorded: maximum effect

Molecule: CC(=O)N[C@H]1[C@@H](OP(=O)(O)OP(=O)(O)OC[C@H]2O[C@@H](n3ccc(=O)[nH]c3=O)[C@H](O)[C@@H]2O)O[C@H](CO)[C@@H](O)[C@@H]1O [UDP-GlcNAc]
- Km ([2]; 125 mM MOPS pH7.3, 0.4 mM Man-peptide, 7.5 mM MnCl2, 37° C., 2 hours, read-out: apparent Km value of His-Xpress-sOMGnT(L) toward UDP-GlcNAc): 730 µM
- Km ([3]; 125 mM MOPS pH7.3, 0.4 mM Man-peptide, 7.5 mM MnCl2, 37° C., 2 hours, read-out: apparent Km value of His-Xpress-sOMGnT(S) toward UDP-GlcNAc): 570 µM

Molecule: O=[N+]([O-])c1ccc(O[C@H]2O[C@H](CO)[C@@H](O)[C@H](O)[C@@H]2O)cc1 [p-nitrophenyl Man, p-nitrophenyl mannose]
- OMGnT relative activity (%) His-Xpress-sOMGnT(L) [2]: 0%
- OMGnT relative activity (%) His-Xpress-sOMGnT(S) [3]: 0%
- reactivity of the enzyme toward sugar receptor [4]: 0%

Molecule: His-Xpress-sOMGnT(L): solubilized human OMGnT, 595 amino acids 66:Ser to 660:Thr, secreted from HEK293T; plasmid named in Table 3
- OMGnT activity [5]: 15 pmol/hr/mg protein
- OMGnT activity (in words) [5]: significantly high OMGnT activity
- GnT-I activity (in words) [6]: did not exhibit activity at all

Molecule: Manα1–6(Manα1–3)Manα1–6(Manα1–3)Manβ1–4GlcNAcβ1–4GlcNAc-PA [M5GN2-PA]
- OMGnT relative activity (%) His-Xpress-sOMGnT(L) [2]: 0%
- OMGnT relative activity (%) His-Xpress-sOMGnT(S) [3]: 0%

Molecule: Manα1–6(Manα1–3)Manβ1–4GlcNAcβ1–4GlcNAc-PA [M3GN2-PA]
- OMGnT relative activity (%) His-Xpress-sOMGnT(L) [2]: 0%
- OMGnT relative activity (%) His-Xpress-sOMGnT(S) [3]: 0%

Molecule: OMGnT/pcDNA3.1zeo: expression plasmid for full-length human OMGnT (SEQ ID NO: 2), expressed in HEK293T; microsomal fractions assayed
- OMGnT activity, times higher than control (no plasmid), insoluble fraction ([7]; insoluble fraction): ~140 times
- OMGnT activity, Insoluble fraction ([7]; insoluble fraction of microsomal fraction, HEK293T): 243.9 pmol/hr/mg protein
- OMGnT activity, times higher than control (no plasmid), soluble fraction ([7]; soluble fraction): about 120 times
- OMGnT activity, Soluble fraction ([7]; soluble fraction of microsomal fraction, HEK293T): 182.7 pmol/hr/mg protein
- OMGnT activity, Total ([7]; soluble plus insoluble fraction): 426.6 pmol/hr/mg protein
